Experimental data from patent publication US20240100049A1, “REACTIVATION OF EMBRYONIC AND FETAL HEMOGLOBIN” (The Henry M. Jackson Foundation for the Advancement of …, priority 2021, published 2024).

Legend:
MEL cells = assay: Inhibitor treatment of MEL cells, real-time RT-PCR of globin mRNA; type: cell-based, Mouse; settings: for effect on expression levels of Hbb-b1/2 (adult globin): 48 hours treatment
Description: For studies testing inhibitors on MEL cells, the cells were treated with selected inhibitors or vehicle in culture medium (RPMI 1640 medium with 10% fetal bovine serum) for 48 hours and were subsequently harvested and analyzed for relative mRNA levels of Hbb-bh1 and Hbb-y using real-time RT-PCR.
Primers as used in the Examples as described herein are summarized below.

human CD34+ HSPCs [1] = assay: Real-time RT-PCR of globin mRNA in erythroid cells differentiated from human CD34+ HSPCs; type: cell-based; settings: 14 days of differentiation; for α-globin mRNA levels: vs DMSO (FIG. 8B)
Description: Human CD34^+ HSPCs treated with PTC596 (PTC) or MI-3454 (MI) at indicated concentrations or vehicle (DMSO) were induced to undergo erythroid differentiation. Cells were harvested after 14 days of differentiation for real-time RT-PCR analysis of human fetal γ (FIG. 8A), embryonic […] (FIG. 8B), and adult β (FIG. 8C) globin mRNA levels. Relative expression levels were calculated by normalizing to GAPDH mRNA levels in the same sample and also to cells treated with DMSO.
(§1) Primary human mobilized CD34^+ HSPCs (StemCell Technologies Inc.) were initially cultured in expansion medium containing StemSpan-XF Medium (StemCell Technologies Inc.) with 1× CC 100 cytokine mix (StemCell Technologies Inc.). Cells were maintained in this expansion medium at a density of 0.1-1×10^6 cells/ml for a total of 4 days with media changes every two days. On day 4, cells were induced to undergo erythroid differentiation in three phases as known in the art. Briefly, base medium for differentiation contains Iscove's Modified Dulbecco's Medium plus 2% human peripheral blood plasma (Innovative Research), 3% human AB serum (Sigma), […] human holo-transferrin (Sigma), 3 IU/mL heparin (Sigma), […] human insulin (Sigma), and 1% Penicillin-Streptomycin (Life Technologies Inc.). In the first phase (day 0 to day 6), cells were cultured at a concentration of 10^5 cells/ml in the presence of 10 ng/mL human stem cell factor (Biolegend), 1 ng/mL human IL-3 (Biolegend), and 3 IU/mL human erythropoietin (Janssen). In the second phase (day 7 to day 11), IL-3 was omitted from the first phase culture medium. In the third phase (day 12 to day 16), both stem cell factor and IL-3 were omitted and the concentration of transferrin was adjusted to 1 mg/ml. Cell density also was adjusted to 10^6 cells/ml in the beginning of this phase. Drug treatments were started at day 2 of expansion condition and maintained thereafter. New drugs were added every 1-2 days with medium change.
The effects of PTC596 and MI-3454 on human fetal (γ) and embryonic (ε) globin expression in erythroid cells produced in culture from primary human CD34^+ hematopoietic stem and progenitor cells (HSPCs) were further tested. […] PTC596, MI-3454, or control DMSO were added to the culture from day 2 of the expansion phase and were replenished upon media change every two days.

γ-Globin = assay: Western blotting of γ-Globin in erythroid-differentiated human CD34+ HSPCs; type: cell-based; settings: erythroid differentiation 14 days
Description: (§2) Western blotting analysis of protein levels of […], BMI1, MEN1, and control ACTIN in CD34^+ HSPCs were treated with PTC596 (PTC) at indicated concentrations (FIG. 9A), MI-3454 (MI) at indicated concentrations (FIG. 9B), or DMSO and induced to undergo erythroid differentiation for 14 days.
as §1, with “In the second phase (day 7 to day 11), IL-3 was omitted from the first phase culture medium. In the third phase (day 12 to day 16), both stem cell factor and IL-3 were omitted and the concentration of transferrin was adjusted to 1 mg/ml. Cell density also was adjusted to 10^6 cells/ml in the beginning of this phase. Drug treatments were started at day 2 of expansion condition and maintained thereafter. New drugs were added every 1-2 days with medium change.” left out

MEN1 = biological target: T1, MEN1 (Homo sapiens, UniProt O00255); assay: Western blotting of MEN1 (MENIN) in erythroid-differentiated human CD34+ HSPCs; type: cell-based; settings: erythroid differentiation 14 days
T1 construct: Western blotting analysis of protein levels of […], BMI1, MEN1, and control ACTIN in CD34^+ HSPCs; host or cells: primary human mobilized CD34+ HSPCs, erythroid differentiation for 14 days
T1 sequence (O00255 1-610): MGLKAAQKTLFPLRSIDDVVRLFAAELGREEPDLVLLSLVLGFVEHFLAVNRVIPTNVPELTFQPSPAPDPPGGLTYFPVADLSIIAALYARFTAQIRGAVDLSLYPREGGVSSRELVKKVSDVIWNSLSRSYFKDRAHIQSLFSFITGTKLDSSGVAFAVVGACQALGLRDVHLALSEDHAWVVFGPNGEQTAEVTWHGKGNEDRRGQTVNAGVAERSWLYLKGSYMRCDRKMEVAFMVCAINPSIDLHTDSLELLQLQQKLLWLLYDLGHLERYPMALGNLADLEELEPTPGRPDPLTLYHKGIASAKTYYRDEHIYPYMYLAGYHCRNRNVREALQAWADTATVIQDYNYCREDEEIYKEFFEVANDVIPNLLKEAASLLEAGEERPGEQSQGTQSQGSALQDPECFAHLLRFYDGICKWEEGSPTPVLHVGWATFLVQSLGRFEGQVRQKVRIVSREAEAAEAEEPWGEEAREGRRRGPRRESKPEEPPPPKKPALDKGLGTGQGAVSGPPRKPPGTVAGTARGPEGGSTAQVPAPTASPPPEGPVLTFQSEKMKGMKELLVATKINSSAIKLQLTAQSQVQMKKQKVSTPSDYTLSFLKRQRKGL
Description: as §2
as §1, with “In the second phase (day 7 to day 11), IL-3 was omitted from the first phase culture medium. In the third phase (day 12 to day 16), both stem cell factor and IL-3 were omitted and the concentration of transferrin was adjusted to 1 mg/ml. Cell density also was adjusted to 10^6 cells/ml in the beginning of this phase. Drug treatments were started at day 2 of expansion condition and maintained thereafter. New drugs were added every 1-2 days with medium change.” left out

human CD34+ HSPCs [2] = assay: Flow cytometry of F-cells (anti-HbF) in cultures of human CD34+ HSPCs; type: cell-based; settings: erythroid differentiation 14 days
Text: Cells were fixed with glutaraldehyde, permeabilized, and stained with a PE-conjugated anti-HbF antibody. The percentages of F-cells are indicated.
as §1, with “In the third phase (day 12 to day 16), both stem cell factor and IL-3 were omitted and the concentration of transferrin was adjusted to 1 mg/ml. Cell density also was adjusted to 10^6 cells/ml in the beginning of this phase. Drug treatments were started at day 2 of expansion condition and maintained thereafter. New drugs were added every 1-2 days with medium change.” left out

human CD34+ HSPCs [3] = assay: Cytospin analysis of erythroid differentiation of human CD34+ HSPCs; type: cell-based; settings: after 14 days of differentiation
Description: FIG. 7 is a cytospin analysis showing erythroblasts and reticulocytes in cultures of human CD34^+ HSPCs treated with PTC596 and MI-3454 and induced to undergo erythroid differentiation for 14 days. Cells were stained using Hema 3 staining system (Fisher Scientific). Scale bar, […].
as §1, with “In the second phase (day 7 to day 11), IL-3 was omitted from the first phase culture medium. In the third phase (day 12 to day 16), both stem cell factor and IL-3 were omitted and the concentration of transferrin was adjusted to 1 mg/ml. Cell density also was adjusted to 10^6 cells/ml in the beginning of this phase. Drug treatments were started at day 2 of expansion condition and maintained thereafter. New drugs were added every 1-2 days with medium change.” left out

BMI1 = biological target: T2, BMI1 (Homo sapiens, UniProt P35226); assay: Western blotting of BMI1 in erythroid-differentiated human CD34+ HSPCs; type: cell-based; settings: erythroid differentiation 14 days
T2 construct: Western blotting analysis of protein levels of […], BMI1, MEN1, and control ACTIN in CD34^+ HSPCs; host or cells: primary human mobilized CD34+ HSPCs, erythroid differentiation for 14 days
T2 sequence (P35226 1-326): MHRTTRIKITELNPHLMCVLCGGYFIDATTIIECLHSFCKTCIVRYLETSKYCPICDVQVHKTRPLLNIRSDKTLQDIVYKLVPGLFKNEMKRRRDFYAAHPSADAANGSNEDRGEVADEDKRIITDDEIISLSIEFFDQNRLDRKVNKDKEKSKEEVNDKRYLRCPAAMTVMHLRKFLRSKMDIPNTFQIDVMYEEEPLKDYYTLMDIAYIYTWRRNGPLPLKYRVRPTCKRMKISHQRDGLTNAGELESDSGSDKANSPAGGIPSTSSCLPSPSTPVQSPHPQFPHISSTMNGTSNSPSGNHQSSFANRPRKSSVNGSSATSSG
Description: as §2
as §1, with “In the second phase (day 7 to day 11), IL-3 was omitted from the first phase culture medium. In the third phase (day 12 to day 16), both stem cell factor and IL-3 were omitted and the concentration of transferrin was adjusted to 1 mg/ml. Cell density also was adjusted to 10^6 cells/ml in the beginning of this phase. Drug treatments were started at day 2 of expansion condition and maintained thereafter. New drugs were added every 1-2 days with medium change.” left out

[4] = tested concentrations, 48 hours
[5] = 50 nM, 48 hours, relative to DMSO, normalized to Rpl4

MENIN protein levels (MEN1) | erythroid differentiation (erythroblasts and reticulocytes observed) (human CD34+ HSPCs [3]) | BMI1 protein levels (BMI1) | Structure (SMILES) | effect on expression levels of Hbb-b1/2 (adult globin) (MEL cells) | Hbb-bh1 mRNA levels (MEL cells; [4]) | Hbb-y mRNA levels (MEL cells; [4]) | percentage of γ-globin expression levels in total β-like globin (β+γ+ε) expression levels (human CD34+ HSPCs [1]; vs DMSO) | β-globin mRNA levels (human CD34+ HSPCs [1]; vs DMSO) | γ-globin mRNA levels (human CD34+ HSPCs [1]; vs DMSO) | α-globin mRNA levels (human CD34+ HSPCs [1]) | γ-Globin protein levels (γ-Globin) | percentage of F-cells (human CD34+ HSPCs [2]) | increase of Hbb-bh1 mRNA levels (MEL cells; [5]) [fold] | increase of Hbb-y mRNA levels (MEL cells; [5]) [fold]
reduced | not blocked | – | CNc1nc(NC2CCN(Cc3ccc4c(cc(C#N)n4CC45CC(NC=O)(C4)C5)c3C)CC2)c2cc(CC(F)(F)F)sc2n1 [MI-3454] | minor changes | significant increases | significant increases | significant increase | increase | significantly increased | significantly increased | increased | higher percentage | – | –
– | not blocked | reduced | Cc1nc2ccc(F)cc2n1-c1nc(N)c(F)c(Nc2ccc(C(F)(F)F)cc2)n1 [PTC596] | minimal effects | – | – | significant increase | – | significantly increased | significantly increased | increased | higher percentage | ~20 | ~15
– | – | – | CCN(C(=O)c1cc(F)ccc1Oc1cncnc1N1CC2(CCN(C[C@H]3CC[C@H](NS(=O)(=O)CC)CC3)CC2)C1)C(C)C [SNDX-5613] | – | significantly increased | – | – | – | – | – | – | – | – | –
